Laboratory results published in patent publication US20250034212A1, “PEPTIDE” (PEPTIDREAM INC., priority 2021, published 2025).
Starred links: 1 amine or outer side, 2 acyl side, 3 side chain; linkers in the order of their positions; H or OH if unused. Positions of bridges follow the written chain, without caps; N, C: chain ends. Non-standard residues stand in square brackets, D forms with d. Residues, ends and D or L forms follow the SMILES beside them. Groups on a side chain read outwards from the residue. No end group written: not given here. *: point of attachment. Meglumine = CN(C[C@H](O)[C@@H](O)[C@H](O)[C@H](O)CO)*; Trp(7-aza) = N[C@@H](Cc1c[nH]c2ncccc12)C(=O)O; Piperazinyl(4-CH2COOH) = O=C(O)CN1CCN(*)CC1; 1Nal = N[C@@H](Cc1cccc2ccccc12)C(=O)O; Gly(NCH2CH2Ph) = O=C(O)CNCCc1ccccc1; 4Pal = N[C@@H](Cc1ccncc1)C(=O)O; CO = O=C([*:1])[*:2]

B1: TGFb1_006 (peptide)
peptide: {CH2CO}-F[1Nal]VVNV[4Pal]DD[Gly(NCH2CH2Ph)]V[1Nal]YHVCG
modifications: thioether N-16; not fully specified (C-terminus)
notes: cyclic peptide; C-terminal G is a linker

Columns and labels:
recombinant human TGF-β1 = target: T1, recombinant human TGF-β1 (Homo sapiens, UniProt P01137); test: SBE reporter assay in SBE reporter-HEK293 cells, TGF-β1 stimulation; assay type: cell-based; conditions: TGF-β1 0.13 nM, 18 hours; for inhibition at 75 pM: peptide 0.075 nM; for inhibition at 0.00075 µM: peptide 0.75 nM; for inhibition at 0.0075 µM: peptide 7.5 nM; for inhibition at 0.075 µM: peptide 75.0 nM; for inhibition at 62 pM: peptide 0.062 nM; for inhibition at 0.000185 µM: peptide 0.185 nM; for inhibition at 0.00056 µM: peptide 0.56 nM; for inhibition at 0.0017 µM: peptide 1.7 nM; for inhibition at 0.005 µM: peptide 5.0 nM; for inhibition at 0.015 µM: peptide 15.0 nM
T1 construct: purchased R&D systems
T1 sequence (P01137 279-390 limits assumed): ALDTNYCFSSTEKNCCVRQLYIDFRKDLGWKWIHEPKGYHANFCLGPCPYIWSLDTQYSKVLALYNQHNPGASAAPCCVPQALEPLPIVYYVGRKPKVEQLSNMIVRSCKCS
Text: The inhibitory activity of the peptide can be calculated without limitation while the maximum signal induced by TGF-β is set to 0% inhibition and no stimulation is set to 100% inhibition. When the peptide is used at an appropriate concentration, for example, at the optimal concentration, the inhibitory activity is not limited but the inhibition is 5% or more, 10% or more, 20% or more, 30% or more, 40% or more, 50% or more, 60% or more, 70% or more, 80% or more, or 90% or more.
In this Example, the TGF-β1 inhibitory activity of the peptide of the present invention consisting of the amino acid sequence set forth in SEQ ID NOs: 2-33 synthesized in Examples 1 to 5 and 7 was evaluated by an SBE reporter assay using the SBE reporter-HEK293 cell system (BP Bioscience) as follows.
SBE reporter-HEK293 cells were cultured in E-MEM (Wako) containing 10% FBS (Sigma). The cells were detached using Accutase (Innovative Cell Technologies), suspended in E-MEM containing 0.5% FBS, seeded onto a 96-well plate(s) at a concentration of 45,000 cells per well, and cultured overnight. The next day, the peptide was added and allowed to stand for 20 min, and recombinant human TGF-β1 (R&D systems) or recombinant human TGF-β2 (R&D systems) was then added at 0.13 nM and cultured for 18 hours.
Thereafter, luciferase assay ONE-Glo reagent was added to each well and the plate was shaken for 5 min. A SpectraMax Paradigm multimode microplate reader (Molecular Devices) was then used for signal detection. The obtained signals were analyzed by GraphPad Prism. The inhibitory activity of the peptide was calculated while the maximum signal induced by TGF-β was set to 0% inhibition and no stimulation was set to 100% inhibition.

[1] = target: recombinant human TGF-β1 (R&D systems) (human, UniProt P01137 279-390); test: cell-based or functional assay
recombinant human TGF-β1 (R&D systems), sequence (P01137 279-390 limits assumed): as above

Molecule	inhibition at 75 pM (recombinant human TGF-β1) [%]	inhibition at 0.00075 µM (recombinant human TGF-β1) [%]	inhibition at 0.0075 µM (recombinant human TGF-β1) [%]	inhibition at 0.075 µM (recombinant human TGF-β1) [%]	inhibition at 62 pM (recombinant human TGF-β1) [%]	inhibition at 0.000185 µM (recombinant human TGF-β1) [%]	inhibition at 0.00056 µM (recombinant human TGF-β1) [%]	inhibition at 0.0017 µM (recombinant human TGF-β1) [%]	inhibition at 0.005 µM (recombinant human TGF-β1) [%]	inhibition at 0.015 µM (recombinant human TGF-β1) [%]	SBE reporter % inhibition, peptide 0.075 nM [1] [%]	SBE reporter % inhibition, peptide 0.75 nM [1] [%]	SBE reporter % inhibition, peptide 7.5 nM [1] [%]	SBE reporter % inhibition, peptide 75.0 nM [1] [%]
CC(C)[C@@H]1NC(=O)CN(CCc2ccccc2)C(=O)[C@H](CC(=O)O)NC(=O)[C@H](CC(=O)O)NC(=O)[C@H](Cc2ccncc2)NC(=O)[C@H](C(C)C)NC(=O)[C@H](CC(N)=O)NC(=O)[C@H](C(C)C)NC(=O)[C@H](C(C)C)NC(=O)[C@H](Cc2cccc3ccccc23)NC(=O)[C@H](Cc2ccccc2)NC(=O)CSC[C@@H](C(=O)NCC(N)=O)NC(=O)[C@H](CCCCNC(=O)N(C)C[C@H](O)[C@@H](O)[C@H](O)[C@H](O)CO)NC(=O)[C@H](Cc2c[nH]cn2)NC(=O)[C@H](Cc2ccc(O)cc2)NC(=O)[C@H](Cc2cccc3ccccc23)NC1=O [TGFb1_016] ({CH2CO}-F[1Nal]VVNV[4Pal]DD[Gly(NCH2CH2Ph)]V[1Nal]YHK([CO-Meglumine])CG-NH2; thioether N-16)	6.1	61	97.6	100										
CC(C)[C@@H]1NC(=O)CN(CCc2ccccc2)C(=O)[C@H](CCCCNC(=O)N2CCN(CC(=O)O)CC2)NC(=O)[C@H](CC(=O)O)NC(=O)[C@H](Cc2ccncc2)NC(=O)[C@H](C(C)C)NC(=O)[C@H](CC(N)=O)NC(=O)[C@H](C(C)C)NC(=O)[C@H](C(C)C)NC(=O)[C@H](Cc2c[nH]c3ncccc23)NC(=O)[C@H](Cc2ccccc2)NC(=O)CSC[C@@H](C(=O)NCC(N)=O)NC(=O)[C@H](C(C)C)NC(=O)[C@H](Cc2c[nH]cn2)NC(=O)[C@H](Cc2ccc(O)cc2)NC(=O)[C@H](Cc2cccc3ccccc23)NC1=O [TGFb1_017] ({CH2CO}-F[Trp(7-aza)]VVNV[4Pal]DK([CO-Piperazinyl(4-CH2COOH)])[Gly(NCH2CH2Ph)]V[1Nal]YHVCG-NH2; thioether N-16)	21.7	60.2	97.2	100										
CC(C)[C@@H]1NC(=O)CN(CCc2ccccc2)C(=O)[C@H](CCCCNC(=O)N(C)C[C@H](O)[C@@H](O)[C@H](O)[C@H](O)CO)NC(=O)[C@H](CC(=O)O)NC(=O)[C@H](Cc2ccncc2)NC(=O)[C@H](C(C)C)NC(=O)[C@H](CC(N)=O)NC(=O)[C@H](C(C)C)NC(=O)[C@H](C(C)C)NC(=O)[C@H](Cc2c[nH]c3ncccc23)NC(=O)[C@H](Cc2ccccc2)NC(=O)CSC[C@@H](C(=O)NCC(N)=O)NC(=O)[C@H](C(C)C)NC(=O)[C@H](Cc2c[nH]cn2)NC(=O)[C@H](Cc2ccc(O)cc2)NC(=O)[C@H](Cc2cccc3ccccc23)NC1=O [TGFb1_018] ({CH2CO}-F[Trp(7-aza)]VVNV[4Pal]DK([CO-Meglumine])[Gly(NCH2CH2Ph)]V[1Nal]YHVCG-NH2; thioether N-16)	22.2	61	97.6	99.9										
CC(C)[C@@H]1NC(=O)CN(CCc2ccccc2)C(=O)[C@H](CCC(=O)O)NC(=O)[C@H](CC(=O)O)NC(=O)[C@H](Cc2ccncc2)NC(=O)[C@H](C(C)C)NC(=O)[C@H](CC(N)=O)NC(=O)[C@H](C(C)C)NC(=O)[C@H](C(C)C)NC(=O)[C@H](Cc2cccc3ccccc23)NC(=O)[C@H](Cc2ccccc2)NC(=O)CSC[C@@H](C(=O)NCC(N)=O)NC(=O)[C@H](CCCCNC(=O)N2CCN(CC(=O)O)CC2)NC(=O)[C@H](Cc2c[nH]cn2)NC(=O)[C@H](Cc2ccc(O)cc2)NC(=O)[C@H](Cc2cccc3ccccc23)NC1=O [TGFb1_021] ({CH2CO}-F[1Nal]VVNV[4Pal]DE[Gly(NCH2CH2Ph)]V[1Nal]YHK([CO-Piperazinyl(4-CH2COOH)])CG-NH2; thioether N-16)					10.2	26.9	58.9	87.8	97.1	98.8				
CC(C)[C@@H]1NC(=O)CN(CCc2ccccc2)C(=O)[C@H](CC(=O)O)NC(=O)[C@H](CC(=O)O)NC(=O)[C@H](Cc2ccncc2)NC(=O)[C@H](C(C)C)NC(=O)[C@H](CC(N)=O)NC(=O)[C@H](C(C)C)NC(=O)[C@H](C(C)C)NC(=O)[C@H](Cc2cccc3ccccc23)NC(=O)[C@H](Cc2ccccc2)NC(=O)CSC[C@@H](C(=O)NCC(N)=O)NC(=O)[C@H](CCC(=O)O)NC(=O)[C@H](Cc2c[nH]cn2)NC(=O)[C@H](Cc2ccc(O)cc2)NC(=O)[C@H](Cc2cccc3ccccc23)NC1=O [TGFb1_027] ({CH2CO}-F[1Nal]VVNV[4Pal]DD[Gly(NCH2CH2Ph)]V[1Nal]YHECG-NH2; thioether N-16)					2.53	9.14	28.4	59.4	84.9	95.5				
CC(C)[C@@H]1NC(=O)CN(CCc2ccccc2)C(=O)[C@H](CC(=O)O)NC(=O)[C@H](CC(=O)O)NC(=O)[C@H](Cc2ccncc2)NC(=O)[C@H](C(C)C)NC(=O)[C@H](CC(N)=O)NC(=O)[C@H](CCCCNC(=O)N(C)C[C@H](O)[C@@H](O)[C@H](O)[C@H](O)CO)NC(=O)[C@H](C(C)C)NC(=O)[C@H](Cc2cccc3ccccc23)NC(=O)[C@H](Cc2ccccc2)NC(=O)CSC[C@@H](C(=O)NCC(N)=O)NC(=O)[C@H](CCC(=O)O)NC(=O)[C@H](Cc2c[nH]cn2)NC(=O)[C@H](Cc2ccc(O)cc2)NC(=O)[C@H](Cc2cccc3ccccc23)NC1=O [TGFb1_028] ({CH2CO}-F[1Nal]VK([CO-Meglumine])NV[4Pal]DD[Gly(NCH2CH2Ph)]V[1Nal]YHECG-NH2; thioether N-16)					0.94	6.17	20.4	47.6	73.9	91.7				
CC(C)[C@@H]1NC(=O)CN(CCc2ccccc2)C(=O)[C@H](CCC(=O)O)NC(=O)[C@H](CC(=O)O)NC(=O)[C@H](Cc2ccncc2)NC(=O)[C@H](C(C)C)NC(=O)[C@H](CC(N)=O)NC(=O)[C@H](CCCCNC(=O)N(C)C[C@H](O)[C@@H](O)[C@H](O)[C@H](O)CO)NC(=O)[C@H](C(C)C)NC(=O)[C@H](Cc2cccc3ccccc23)NC(=O)[C@H](Cc2ccccc2)NC(=O)CSC[C@@H](C(=O)NCC(N)=O)NC(=O)[C@H](CCC(=O)O)NC(=O)[C@H](Cc2c[nH]cn2)NC(=O)[C@H](Cc2ccc(O)cc2)NC(=O)[C@H](Cc2cccc3ccccc23)NC1=O [TGFb1_029] ({CH2CO}-F[1Nal]VK([CO-Meglumine])NV[4Pal]DE[Gly(NCH2CH2Ph)]V[1Nal]YHECG-NH2; thioether N-16)					12	16.9	32.4	63.7	85.8	96.8				
B1											2.8	69.3	97.1	99.7
